Assay results as given in patent publication US20250242030A1, “COMPOSITIONS COMPRISING A NON-BIOABSORBABLE POLYMER AND METABOLIC INHIBITOR” (Board of Trustees of Michigan State University, priority 2022, published 2025).

Experiments:
Format in all cases: cell-based, mouse
MEFs [1] = assay: Crystal violet cell viability assay in MEFs; conditions: MEFs treated with metabolic inhibitors; data not shown
Text: (§1) BMDMs derived from C57BL/6J mice (Jackson Laboratories) of 3-4 months were used. Mouse embryonic fibroblasts (NIH 3T3 cells, hereafter “MEFs”) were stably transfected with a Sleeping Beauty transposon plasmid (pLuBIG) having a bidirectional promoter driving an improved firefly luciferase gene (fLuc) and a fusion gene encoding a Blasticidin-resistance marker (BsdR) linked to eGFP (BGL). For temporal (IVIS) experiments lasting 12 days, 5,000 BGL cells were initially seeded in each well of a 96-well tissue culture plate in 200 μL if complete medium. For ATP, crystal violate, and Seahorse assays, 20,000 wild-type MEFs were seeded. For ATP, crystal violate, and cytokine/chemokine assays, 50,000 BMDMs were seeded. 60,000 BMDMs were seeded for the Seahorse assays. For IVIS experiments with glycolytic inhibitors, 20,000 BGL cells were initially seeded. Complete medium comprised DMEM medium, 10% heat inactivated fetal bovine serum (FBS), and 100 U/mL penicillin/streptomycin (all from ThermoFisher Scientific).
(§2) Cell viability was measured using the crystal violet staining assay at room temperature. 50 μL media containing cells is incubated with 150 μL of 99.9% methanol for 15 minutes. […] Absorbance (optical density) was acquired at 570 nm using the SpectraMax M3 Spectrophotometer (Molecular Devices) and SoftMax Pro software (ver. 7.0.2).

BMDMs [2] = assay: Crystal violet cell viability assay in BMDMs; conditions: BMDMs treated with metabolic inhibitors; data not shown
Text: as §1, §2

BMDMs [3] = assay: Cytokine and chemokine multiplex assay in BMDM supernatants
Text: as §1
Cytokine and chemokine levels were measured using a MILLIPLEX MAP mouse magnetic bead multiplex kit (MilliporeSigma) to assess for IL-6, MCP-1, TNF-α, IL-1β, IL-4, IL-10, IFN-γ, and 1L-13 protein expression in supernatants. Data was acquired using Luminex 200 (Luminex Corporation) by the xPONENT software (Version 3.1, Luminex Corporation). […] Values exceeding the dynamic range of the assay, in accordance with manufacturer's instruction, were excluded. Additionally, IL-6 ELISA kits (RayBiotech) for supernatants were used according to manufacturer's instructions.

BMDMs [4] = assay: Seahorse assay (ECAR, PER, OCR) in BMDMs; conditions: PE-exposed BMDMs in presence of inhibitor
Text: as §1
To determine the metabolic pathways responsible for the observed bioenergetic changes, Seahorse assays were used to measure oxygen consumption rate (OCR), extracellular acidification rate (ECAR) and lactate-linked proton efflux rate (PER) in a customized medium (pH 7.4). Basal measurements of OCR, ECAR, and PER were obtained in real time using the Seahorse XFe-96 Extracellular Flux Analyzer (Agilent Technologies). Prior to running the assay, cell culture medium was washed with and replaced by the Seahorse XF DMEM medium (pH 7.4) supplemented with 25 mM D-glucose and 4 mM glutamine. The Seahorse plates were equilibrated in a non-CO2 incubator for an hour prior to the assay. The Seahorse ATP rate and cell energy phenotype assays were run according to manufacturer's instruction and all reagents for the Seahorse assays were sourced from Agilent Technologies. Wave software (Version 2.6.1) was used to export Seahorse data directly as means±standard deviation (SD).
Seahorse assays measures ECAR as an index of glycolytic flux, OCR as an index of oxidative phosphorylation and PER as an index of monocarboxylate transporter function in live cells, and are used to assess for metabolic reprogramming. […] (FIGS. 3a-c)
(§3) Preparation of ultra-high molecular weight polyethylene particles are described in Example 1 above. The bioenergetics measurements, Seahorse assay, crystal violet assay, and cytokine and chemokine assays were conducted as described in Example 1. Inhibitors rotenone, metformin, oligomycin, and antimycin A were obtained from MilliporeSigma. The reagents were reconstituted in complete medium (described above).

MEFs [5] = assay: Total ATP levels in lysed MEFs (ATP/ADP kit); conditions: PE-exposed MEFs with inhibitor of mitochondrial respiration
Experimental: (§4) Bioluminescence was measured using an IVIS Spectrum in vivo imaging system (PerkinElmer) after addition of 150 μg/mL of D-luciferin (PerkinElmer). Living Image (Version 4.5.2, PerkinElmer) was used for acquiring bioluminescence on the IVIS Spectrum. Standard ATP/ADP kits (Sigma-Aldrich) containing D-luciferin, luciferase, and cell lysis buffer were used according to manufacturer's instructions. Luminescence at integration time of 1,000 ms was obtained using the SpectraMax M3 Spectrophotometer (Molecular Devices) and SoftMax Pro software (ver. 7.0.2).
as §1

BMDMs [6] = assay: Bioenergetic (ATP) levels in BMDMs; conditions: PE-exposed BMDMs with inhibitor of mitochondrial respiration
Experimental: as §4, §1, §3

macrophages [7] = assay: mitoSOX Red staining for mitochondrial ROS; conditions: added to PE-exposed macrophages, compared to macrophages exposed to only PE
Text: To test whether increased OCR at complex I (FIG. 8c) fueled ROS production in the mitochondrion, macrophages were stained with mitoSOX Red. Exposure to LPS or PE particles increased mitochondrial reactive oxygen species (ROS) relative to untreated macrophages. Addition of metformin decreased mitochondrial ROS compared to macrophages exposed to only PE. Mitochondrial membrane potential is critical for reverse electron transport (RET) at complex I, and subsequent generation of mitochondrial ROS.

macrophages [8] = assay: TMRM staining for mitochondrial membrane potential; conditions: metformin added to exposed cells
[9] = 1 mM inhibitor, BMDMs exposed to ultra-high molecular weight PE particles
[10] = metformin, BMDMs treated with PE

SMILES | cell viability (MEFs [1]) | cell viability (BMDMs [2]) | IL-4 (BMDMs [3]; [9]) | expression of IL-1β (BMDMs [3]; [9]) | expression of IL-6 (BMDMs [3]; [9]) | expression of MCP-1 (BMDMs [3]; [9]) | expression of TNF-α (BMDMs [3]; [9]) | ECAR (BMDMs [4]) | OCR (BMDMs [4]) | PER (BMDMs [4]) | ATP levels in PE-exposed cells (MEFs [5]) | ATP levels in PE-exposed cells (BMDMs [6]) | other results
O=CC[C@@H](O)[C@H](O)[C@H](O)CO [2DG, 2-deoxyglucose] | did not lower | did not lower | increased | decreased | decreased | decreased | decreased |  |  |  |  |  | 
O=C(C=Cc1cccnc1)c1ccncc1 [3PO, 3-(3-pyridinyl)-1-(4-pyridinyl)-2-propen-1-one] | did not lower | did not lower | increased | decreased | decreased | decreased | decreased |  |  |  |  |  | 
NOCC(=O)O [aminooxyacetic acid] |  |  | increased | decreased | decreased | decreased | decreased |  |  |  |  |  | IL-10 levels (BMDMs [3]; [9]): increased
CN(C)C(=N)N=C(N)N [metformin] |  |  |  |  |  |  |  | reduced | reduced | reduced | did not impact | did not impact | IL-1β (BMDMs [3]; [10]): decreases; IL-4 (BMDMs [3]; [10]): did not increase; IL-6 (BMDMs [3]; [10]): decreases; IL-10 (BMDMs [3]; [10]): did not increase; MCP-1 (BMDMs [3]; [10]): decreases; TNF-α expression (BMDMs [3]; [10]): not mitigated; mitochondrial ROS (macrophages [7]): decreased; elevated mitochondrial membrane potential (macrophages [8]): decreases
CC[C@H]1/C=C/C=C/C[C@@H](C)[C@H](O)[C@@](C)(O)C(=O)[C@@H](C)[C@H](O)[C@@H](C)C(=O)[C@@H](C)[C@H](O)[C@@H](C)/C=C/C(=O)O[C@@H]2[C@H](C)[C@H](CC1)O[C@]1(CC[C@H](C)[C@H](C[C@@H](C)O)O1)[C@H]2C [oligomycin] |  |  |  |  |  |  |  |  | affected |  | did not impact | did not impact | 
C=C(C)[C@H]1Cc2c(ccc3c2O[C@@H]2COc4cc(OC)c(OC)cc4[C@@H]2C3=O)O1 [rotenone] |  |  |  |  |  |  |  | did not impact | decrease | did not impact | did not impact | did not impact | 
